# Results from patent US20230219957A1, “SMALL MOLECULE CB002-ANALOGES RESTORE THE P53 PATHWAY AND TARGET S-PHASE CHECKPOINT” (Brown University, priority 2020, published 2023).
# Test system: normal human WI38 lung fibroblast cells
# Assay: Propidium iodide Sub-G1 analysis in normal cells
# Type: cell-based
# Conditions: forty-eight hours
# Protocol: Apoptosis assay. Apoptotic cells were quantified by sub-G1 analysis. Cells were seeded at a density of 2.5×10^5to 5×10^5in a 6-well plate and treated forty-eight to seventy-two hours. After treatment, adherent cells were trypsinized and collected along with floating cells, washed with phosphate-buffered saline, and fixed in 70% ethanol. Cells were then incubated in a phosphate-citric acid buffer (0.2M Na2HPO4+0.1M citric acid, pH 7.8) at room temperature for five minutes, spun down, and resuspended for staining with 50 μg/mL propidium iodide (PI) in the presence of 250 μg/mL pancreatic ribonuclease (RNase A). Sub-G1 analyses were performed using an Epics Elite Epics flow cytometer (Coulter-Beckman). Propidium iodide and BrdU flow cytometry assay. Cells were seeded at a density of 5×10^5 in a 6-well plate and treated for forty-eight to seventy-two hours. After treatment, floating cells were collected, and adherent cells were trypsinized, pelleted, washed with phosphate-buffered saline, and fixed in 70% ethanol overnight. For propidium iodide (PI) based Sub-G1 apoptosis analysis, cells were spun down after fixation and resuspended in phosphate-citric acid buffer (0.2M Na2HPO4+0.1M Citric Acid, pH 7.8) at room temperature for five minutes. […] Samples were analyzed on an Epics Elite Epics flow cytometer (Coulter-Beckman).
smiles,measurement,value
Cn1c(=O)c2[nH]c(Nc3cccc(C(F)(F)F)c3)nc2n(C)c1=O [CB002-analog #4],sub-G1 in normal cells,does not increase sub-G1
